{"source": "patent US20240174718A1", "about": "“RYANODINE RECEPTOR INHIBITOR COMPOUNDS AND METHODS RELATING THERETO” (Vanderbilt University, priority 2022, published 2024)", "key": {"[1]": {"assay": "In vivo pharmacokinetic study after intraperitoneal administration", "parameters": "species or system mouse", "conditions": "for half-life: 3 mg/kg", "procedure": "FIGS. 11(A-B) show in vivo pharmacokinetics in mice for a compound of the present invention. […] N=3 mice. Plasma collected serially at 0.167, 0.333. 0.5, 1, 3, and 8 hours post-administration. […] Individual data points (grey) shown alongside mean values with connecting lines.\nIn vivo pharmacokinetic study—The pharmacokinetic study was carried out by a contract research organization, Pharmaron, Inc. Mice were housed with free access to food and water. All protocols and procedures were compliant with Animal care and Use Application approved by the Institution Animal Care and Use Committee of Pharmaron, Inc., (protocol #PH-DMPK-VUMC-22-003) following the guidance of the Association for Assessment and Accreditation of Laboratory Animal Care (AAALAC). An ent-B1 dose of 3 mg/kg (drug/body weight) was used. Three male CDI mice, age 6-8 weeks, were selected for the study. Mice were injected intraperitoneally with ent-B1 dissolved in solution containing 10% Tween 20, 10% DMSO, 40% water, and 40% PEG-400 (v/v, 5 mL/kg), with a final concentration of 0.6 mg/mL. 30 μL of blood was collected from each animal at 10, 20, 30, 60, 180, and 480 minutes following drug administration and centrifuged at 5000×g, 4° C. for 5 minutes to obtain plasma. The samples were stored at −75±15° C. until analysis.\nLC-MS/MS analysis of ent-B1—LC-MS/MS with electronspray ionization in the positive ion mode setting was used to detect ent-B1 followed by multiple reaction monitoring of precursor and product ions as follows: ent-B1 (mass-to-charge ratio [m/z] 640.18 to 214.00). Mouse plasma was quantified using nine standards (0.5-1000 ng/ml) and four quality control levels (1, 2, 50, 800 ng/ml) prepared independently of those used for the standard curve. 20 μL of standards, quality control samples, and unknown samples (10 μL plasma and 10 μL blank solution) were added to 200 μL acetonitrile containing internal standard (dexamethasone; [m/z] 393.40 to 373.30) for protein precipitation. The samples were vortexed for 30 seconds, centrifuged for 15 minutes at 4000 rpm and […], and the supernatant was diluted five times with water. Samples were then loaded into SIL-30AC autosampler and 10 μL was injected into a Shimadzu LC-30AD Series HPLC coupled to an AB Sciex Triple Quad 5500 mass spectrometer. Analytes were separated on a Raptor Biphenyl column (50×2.1 mm, 2.7 um) using a 95:5 (v/v) mobile phase mixture of 0.1% formic acid in water (mobile phase A) and 0.1% formic acid in acetonitrile (mobile phase B) at the flow rate of 0.6 ml/min. The gradient for mobile phase B was increased to 95% over 1.4 minutes with a total run time of 2.5 minutes for each sample. All quality controls and standards met the following acceptance criteria 1) standard curve of at least five standards are within 15% of their nominal concentrations and at least 50% at each quality control level (low, medium, and high) were within 15% of their nominal concentrations.\nPharmacokinetic analysis—Plasma concentrations of ent-B1 at each time point were imported to Phoenix WinNonlin® 8.0 software (Certara USA, Inc., Princeton, NJ). Plasma concentration time profiles for individual animals were analyzed by noncompartmental analysis using model 200 (Plasma; Single Extravascular Dose; Linear Log Trapezoidal Method) to approximate the elimination rate constant (ke), half-life (T1/2), maximum observed plasma concentration (Cmax), time to maximum observed plasma concentration (Tmax), the area under the plasma concentration-time curve from zero to infinity (AUCinf)."}, "RyR2": {"molecular_target": "T1, RyR2 (Mus musculus, UniProt E9Q401)", "T1 construct": "spontaneous openings of intracellular RyR2 Ca^2+ release channels; endogenous in cells; host or cells: ventricular cardiomyocytes isolated from Casq2-/- mice (saponin-permeabilized in A1, intact in A7)", "T1 sequence (E9Q401 whole entry)": "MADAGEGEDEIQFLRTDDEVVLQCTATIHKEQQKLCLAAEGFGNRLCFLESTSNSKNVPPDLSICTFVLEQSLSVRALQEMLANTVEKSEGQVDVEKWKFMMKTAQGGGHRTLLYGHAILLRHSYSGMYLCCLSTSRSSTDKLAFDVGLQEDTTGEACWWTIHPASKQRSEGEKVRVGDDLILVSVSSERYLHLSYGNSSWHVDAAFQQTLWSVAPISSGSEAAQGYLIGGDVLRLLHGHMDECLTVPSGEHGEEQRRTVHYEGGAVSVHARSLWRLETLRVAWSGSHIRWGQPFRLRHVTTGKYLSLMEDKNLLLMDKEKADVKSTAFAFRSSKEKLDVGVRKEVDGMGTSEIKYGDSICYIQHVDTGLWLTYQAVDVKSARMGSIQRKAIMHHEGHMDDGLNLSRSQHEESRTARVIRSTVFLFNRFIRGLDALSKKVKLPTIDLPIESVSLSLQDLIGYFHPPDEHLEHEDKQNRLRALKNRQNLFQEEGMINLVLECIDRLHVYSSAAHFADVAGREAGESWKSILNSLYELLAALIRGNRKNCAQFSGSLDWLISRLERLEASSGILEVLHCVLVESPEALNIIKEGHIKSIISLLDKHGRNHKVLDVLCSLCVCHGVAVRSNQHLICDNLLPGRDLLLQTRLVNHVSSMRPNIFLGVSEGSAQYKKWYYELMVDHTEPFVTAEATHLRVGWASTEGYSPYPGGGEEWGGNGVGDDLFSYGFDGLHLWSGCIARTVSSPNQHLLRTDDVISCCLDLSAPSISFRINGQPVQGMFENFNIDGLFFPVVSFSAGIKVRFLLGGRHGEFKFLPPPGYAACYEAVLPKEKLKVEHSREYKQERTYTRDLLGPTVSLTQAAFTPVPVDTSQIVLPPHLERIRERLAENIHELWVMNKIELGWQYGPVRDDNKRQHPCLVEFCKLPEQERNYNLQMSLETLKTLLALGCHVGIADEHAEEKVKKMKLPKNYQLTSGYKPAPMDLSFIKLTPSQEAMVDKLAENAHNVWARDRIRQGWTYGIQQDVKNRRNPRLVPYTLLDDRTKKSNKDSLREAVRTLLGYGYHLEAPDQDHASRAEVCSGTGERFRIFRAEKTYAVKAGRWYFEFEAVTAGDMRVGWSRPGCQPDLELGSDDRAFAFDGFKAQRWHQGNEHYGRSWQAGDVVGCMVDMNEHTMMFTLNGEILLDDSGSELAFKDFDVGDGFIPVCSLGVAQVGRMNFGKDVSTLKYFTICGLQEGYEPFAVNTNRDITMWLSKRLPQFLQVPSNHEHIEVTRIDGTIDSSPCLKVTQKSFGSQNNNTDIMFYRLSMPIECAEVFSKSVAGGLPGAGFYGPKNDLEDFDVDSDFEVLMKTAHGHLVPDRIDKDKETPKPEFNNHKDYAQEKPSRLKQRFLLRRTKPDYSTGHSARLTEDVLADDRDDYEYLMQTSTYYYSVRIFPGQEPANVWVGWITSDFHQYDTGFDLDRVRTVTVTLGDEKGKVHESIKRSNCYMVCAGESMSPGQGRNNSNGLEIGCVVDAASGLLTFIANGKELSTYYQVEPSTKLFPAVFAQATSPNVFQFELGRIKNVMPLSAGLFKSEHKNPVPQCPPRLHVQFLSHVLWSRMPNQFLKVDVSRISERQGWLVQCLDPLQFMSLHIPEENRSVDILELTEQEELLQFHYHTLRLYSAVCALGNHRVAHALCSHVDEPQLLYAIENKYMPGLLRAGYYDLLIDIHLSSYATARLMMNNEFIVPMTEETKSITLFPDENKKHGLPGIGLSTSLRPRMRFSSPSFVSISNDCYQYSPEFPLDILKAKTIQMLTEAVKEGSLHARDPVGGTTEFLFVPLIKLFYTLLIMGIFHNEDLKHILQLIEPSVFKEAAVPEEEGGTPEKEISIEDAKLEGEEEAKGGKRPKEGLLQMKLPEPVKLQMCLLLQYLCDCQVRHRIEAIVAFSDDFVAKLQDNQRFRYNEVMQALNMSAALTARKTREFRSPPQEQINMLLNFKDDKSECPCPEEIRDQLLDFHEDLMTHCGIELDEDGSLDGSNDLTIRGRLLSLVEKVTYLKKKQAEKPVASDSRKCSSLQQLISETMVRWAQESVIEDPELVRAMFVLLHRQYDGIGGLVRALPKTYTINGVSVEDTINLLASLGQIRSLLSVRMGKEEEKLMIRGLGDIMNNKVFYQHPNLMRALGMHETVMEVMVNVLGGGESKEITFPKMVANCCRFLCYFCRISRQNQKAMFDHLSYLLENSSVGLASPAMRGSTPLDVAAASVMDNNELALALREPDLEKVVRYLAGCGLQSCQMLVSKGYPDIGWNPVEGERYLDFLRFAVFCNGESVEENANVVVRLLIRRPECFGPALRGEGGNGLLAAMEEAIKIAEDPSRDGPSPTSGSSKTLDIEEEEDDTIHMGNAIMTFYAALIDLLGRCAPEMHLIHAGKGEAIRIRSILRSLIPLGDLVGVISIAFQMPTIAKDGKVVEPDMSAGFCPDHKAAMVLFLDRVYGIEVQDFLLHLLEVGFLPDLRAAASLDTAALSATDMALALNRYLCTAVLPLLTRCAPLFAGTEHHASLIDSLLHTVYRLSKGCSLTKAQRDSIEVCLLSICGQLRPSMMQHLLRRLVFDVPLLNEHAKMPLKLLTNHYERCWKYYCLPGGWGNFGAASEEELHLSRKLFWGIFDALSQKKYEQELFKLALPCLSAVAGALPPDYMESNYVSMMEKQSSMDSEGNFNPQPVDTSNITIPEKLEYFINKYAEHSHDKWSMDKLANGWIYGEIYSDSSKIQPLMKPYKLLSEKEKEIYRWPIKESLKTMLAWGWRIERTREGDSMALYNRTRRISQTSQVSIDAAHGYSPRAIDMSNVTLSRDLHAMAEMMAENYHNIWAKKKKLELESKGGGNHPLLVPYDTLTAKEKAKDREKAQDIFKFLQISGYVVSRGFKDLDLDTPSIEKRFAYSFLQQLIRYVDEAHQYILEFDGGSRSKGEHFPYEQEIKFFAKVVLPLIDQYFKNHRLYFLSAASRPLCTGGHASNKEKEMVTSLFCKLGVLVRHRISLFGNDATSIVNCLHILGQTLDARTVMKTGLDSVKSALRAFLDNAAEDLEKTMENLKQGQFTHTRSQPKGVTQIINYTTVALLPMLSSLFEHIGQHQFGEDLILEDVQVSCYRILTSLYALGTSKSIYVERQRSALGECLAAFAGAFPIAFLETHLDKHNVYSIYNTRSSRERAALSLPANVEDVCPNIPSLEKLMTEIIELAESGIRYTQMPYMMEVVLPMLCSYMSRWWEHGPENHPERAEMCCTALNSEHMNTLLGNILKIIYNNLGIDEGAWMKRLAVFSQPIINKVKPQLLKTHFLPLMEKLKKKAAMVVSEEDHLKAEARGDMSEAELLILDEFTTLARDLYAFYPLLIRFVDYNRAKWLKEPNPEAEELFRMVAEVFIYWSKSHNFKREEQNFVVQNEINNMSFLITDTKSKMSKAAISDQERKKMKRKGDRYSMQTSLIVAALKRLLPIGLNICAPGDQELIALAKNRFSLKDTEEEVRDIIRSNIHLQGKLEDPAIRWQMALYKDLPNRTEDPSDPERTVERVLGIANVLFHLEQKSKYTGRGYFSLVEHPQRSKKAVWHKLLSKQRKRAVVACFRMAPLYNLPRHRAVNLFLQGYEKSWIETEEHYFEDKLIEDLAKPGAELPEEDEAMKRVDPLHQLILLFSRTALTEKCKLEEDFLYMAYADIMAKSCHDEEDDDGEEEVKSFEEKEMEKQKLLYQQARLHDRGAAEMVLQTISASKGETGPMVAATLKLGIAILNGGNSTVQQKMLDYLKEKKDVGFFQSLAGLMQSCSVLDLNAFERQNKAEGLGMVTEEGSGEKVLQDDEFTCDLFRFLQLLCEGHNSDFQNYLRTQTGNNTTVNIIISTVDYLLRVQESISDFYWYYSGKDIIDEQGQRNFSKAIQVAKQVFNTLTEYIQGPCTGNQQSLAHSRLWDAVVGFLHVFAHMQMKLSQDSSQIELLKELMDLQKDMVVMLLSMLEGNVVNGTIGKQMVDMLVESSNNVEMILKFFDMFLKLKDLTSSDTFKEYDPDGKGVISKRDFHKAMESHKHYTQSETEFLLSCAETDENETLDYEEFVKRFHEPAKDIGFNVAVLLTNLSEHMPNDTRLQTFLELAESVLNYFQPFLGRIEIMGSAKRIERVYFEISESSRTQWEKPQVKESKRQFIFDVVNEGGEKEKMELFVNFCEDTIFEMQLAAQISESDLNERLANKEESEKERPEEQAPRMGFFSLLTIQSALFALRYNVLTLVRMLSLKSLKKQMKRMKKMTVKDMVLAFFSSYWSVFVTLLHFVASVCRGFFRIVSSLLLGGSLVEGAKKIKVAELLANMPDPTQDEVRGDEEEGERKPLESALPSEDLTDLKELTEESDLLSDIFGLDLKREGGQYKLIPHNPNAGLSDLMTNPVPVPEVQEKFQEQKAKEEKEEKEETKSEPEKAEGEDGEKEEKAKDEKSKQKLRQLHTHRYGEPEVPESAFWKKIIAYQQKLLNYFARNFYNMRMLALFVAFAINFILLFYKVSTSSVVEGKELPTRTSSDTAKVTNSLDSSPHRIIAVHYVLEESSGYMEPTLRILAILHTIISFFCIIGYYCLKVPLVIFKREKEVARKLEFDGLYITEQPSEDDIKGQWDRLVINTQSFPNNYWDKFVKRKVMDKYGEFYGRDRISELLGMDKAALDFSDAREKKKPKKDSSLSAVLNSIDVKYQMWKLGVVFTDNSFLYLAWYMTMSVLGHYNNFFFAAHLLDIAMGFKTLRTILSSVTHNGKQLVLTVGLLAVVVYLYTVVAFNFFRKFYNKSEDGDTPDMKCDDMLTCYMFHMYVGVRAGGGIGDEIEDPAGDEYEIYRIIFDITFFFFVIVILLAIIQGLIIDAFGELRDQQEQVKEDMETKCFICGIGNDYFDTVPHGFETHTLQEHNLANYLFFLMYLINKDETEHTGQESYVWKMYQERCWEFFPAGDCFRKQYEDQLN", "assay": "Calcium spark frequency in permeabilized Casq2 knockout cardiomyocytes (screen for RyR2 activity)", "assay_type": "cell-based", "procedure": "FIGS. 3(A)-3(E) show a biological screen for cardiac ryanodine receptor (RyR2) activity. Note that ‘ent-24’=9, and ‘ent-18’ refers to structure 8 in FIG. 1, which is also the enantiomer of a natural product. (3A) Calcium spark frequency in permeabilized murine cardiomyocytes was recorded as an index of RyR2 activity. Compounds were screened at 25 uM concentration after 10-minute incubation. *=p<0.001 by one-way ANOVA with Tukey's post-hoc test. (3B) Incubation time was extended to 60 minutes for the 12- and 30-membered rings. (3C) The seco-acid precursors to 12- and 18-membered rings were tested at 25 uM. (3D) Concentration response curve for the 18-membered ring and (3E) 24-membered ring. Cells were incubated for 30 minutes\nActivity of Ring-Size Analogues. […] Ventricular cardiomyocytes were isolated, permeabilized with saponin, and incubated with vehicle (DMSO) or 25 μM of selected compound. RyR2 activity was measured in the form of calcium sparks, which are elementary Ca^2+ release events generated by spontaneous openings of intracellular RyR2 Ca^2+ release channels. Importantly, saponin selectively permeabilizes the sarcolemmal membrane, leaving the SR membrane intact and ensuring equivalent access of the compounds to the SR membrane where RyR2 resides.\nThe compounds were first screened by incubating cardiomyocytes for 10 minutes at 25 μM concentration and compared to vehicle (DMSO) conditions."}, "[2]": {"conditions": "male, mouse, plasma, ip, 3 mg/kg intraperitoneal, CD1 mice"}}, "note": "Like-named read-outs stand apart in the source and are kept apart here.", "data": [{"molecule": "CCCCC[C@@H]1OC(=O)[C@@H](C)N(C)C(=O)[C@H](CCCCC)OC(=O)[C@@H](C)N(C)C(=O)[C@H](CCCCC)OC(=O)[C@@H](C)N(C)C1=O", "note": "(single isomer, unassigned) [ent-B1]", "values": [{"measurement": "time of peak plasma concentration after i.p. injection", "setting": "[1]; 3 mg/kg i.p.", "value": 10, "unit": "min"}, {"measurement": "clinical observation during PK experiment", "setting": "[1]; 3 mg/kg i.p., CD1 mice", "value": "no abnormality"}, {"measurement": "ke (elimination rate constant)", "setting": "[1]; 3 mg/kg intraperitoneal, CD1 mice", "value": "0.932 ± 0.139", "unit": "h⁻¹"}, {"measurement": "half-life", "setting": "[1]; male, CD1, mouse, plasma, ip, 3 mg/kg i.p., mice, read-out: mean elimination half-life (t1/2)", "value": 45.4, "unit": "min"}, {"measurement": "half-life", "setting": "[1]; male, CD1, mouse, plasma, ip, 3 mg/kg intraperitoneal, CD1 mice, read-out: T1/2 (elimination half-life) (converted)", "value": "45.4 ± 7.38", "unit": "min"}, {"measurement": "Cmax", "setting": "[1]; male, CD1, mouse, plasma, ip, 3 mg/kg i.p., read-out: mean peak plasma concentration (Cmax)", "value": 2300, "unit": "nM"}, {"measurement": "Cmax", "setting": "[1]; male, mouse, ip, 3 mg/kg intraperitoneal, CD1 mice, plasma, read-out: Cmax", "value": 1460, "unit": "ng/mL"}, {"measurement": "AUC(0-inf)", "setting": "[1]; [2]", "value": "1020 ± 184", "unit": "ng·h/mL"}, {"measurement": "CL/F", "setting": "[1]; [2]", "value": 50.2, "unit": "mL/min/kg"}, {"measurement": "Tmax", "setting": "[1]; [2]", "value": 10, "unit": "min"}, {"measurement": "Vd/F", "setting": "[1]; male, mouse, plasma, ip, 3 mg/kg intraperitoneal, CD1 mice, read-out: Vz/F", "value": "3.32 ± 1", "unit": "L/kg"}, {"measurement": "peak plasma concentration in vivo relative to IC50 in cardiomyocytes", "setting": "[1]; mouse, in vivo", "value": "more than 10 fold"}, {"measurement": "RyR2-mediated Ca2+ spark frequency", "setting": "RyR2; 25 μM, 10 minutes incubation, vs vehicle (DMSO)", "value": "significantly inhibited"}, {"measurement": "activity in the calcium spark assay (summary statement)", "setting": "RyR2; listed as 8", "value": "potent inhibitor"}, {"measurement": "activity in the calcium spark assay (summary statement)", "setting": "RyR2; listed as 18-membered COD", "value": "potent"}]}]}
